Measurements: ChEMBL document CHEMBL1201862, “PubChem BioAssay data set” (2004)
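Briefly, cells in 96-well plates were exposed to five compound concentrations for 48 h, and endpoints were estimated by linear interpolation. GI50 is the concentration that inhibits growth by half.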 Calls of active or inactive are those of the source. Cut-off read from the data, not from the text of the source: active = GI50 up to about 1.1 µM and inactive = higher.

What was measured:
Experiment in all cases: NCI-60 cell line screen, 48 h
HCC 2998 = system: HCC 2998
HOP-92 = system: HOP-92
NCI-H23 = system: NCI-H23
NCI-H226 = system: NCI-H226
NCI/ADR-RES = system: NCI/ADR-RES
RXF 393 = system: RXF 393
MDA-MB-435 = system: MDA-MB-435
HCT-116 = system: HCT-116
RPMI-8226 = system: RPMI-8226
UO-31 = system: UO-31
SR = system: SR
OVCAR-5 = system: OVCAR-5
ACHN = system: ACHN
HL-60 = system: HL-60
SN12C = system: SN12C
KM12 = system: KM12
OVCAR-4 = system: OVCAR-4
A498 = system: A498
Malme-3M = system: Malme-3M
SK-OV-3 = system: SK-OV-3

Measured: GI50

COC(=O)c1ccccc1CC1Cc2cc3c(cc2C1=O)CCC3 (stereo not given)
inactive: HCC 2998 > 41.1 µM | HOP-92 13.7 µM | NCI-H23 19.3 µM | NCI-H226 18.5 µM | NCI/ADR-RES 3.05 µM | RXF 393 2.56 µM | MDA-MB-435 1.95 µM | HCT-116 5.32 µM | RPMI-8226 10.5 µM | UO-31 22.3 µM | SR 4.06 µM | OVCAR-5 26.5 µM | ACHN 27.7 µM | HL-60 3.83 µM | SN12C 11.5 µM | KM12 8.67 µM | OVCAR-4 19.2 µM | A498 11.7 µM | Malme-3M 7.14 µM | SK-OV-3 18.5 µM
